The EC50 is the concentration at which the effect is half-maximal. A lower EC50 goes with higher potency in that assay.

The assay addresses T1, human FXR (NR1H4) (Homo sapiens, UniProt Q96RI1).
T1 construct: host or cells: CHO (Chinese hamster ovary) reporter cells
T1 sequence (Q96RI1 1-486): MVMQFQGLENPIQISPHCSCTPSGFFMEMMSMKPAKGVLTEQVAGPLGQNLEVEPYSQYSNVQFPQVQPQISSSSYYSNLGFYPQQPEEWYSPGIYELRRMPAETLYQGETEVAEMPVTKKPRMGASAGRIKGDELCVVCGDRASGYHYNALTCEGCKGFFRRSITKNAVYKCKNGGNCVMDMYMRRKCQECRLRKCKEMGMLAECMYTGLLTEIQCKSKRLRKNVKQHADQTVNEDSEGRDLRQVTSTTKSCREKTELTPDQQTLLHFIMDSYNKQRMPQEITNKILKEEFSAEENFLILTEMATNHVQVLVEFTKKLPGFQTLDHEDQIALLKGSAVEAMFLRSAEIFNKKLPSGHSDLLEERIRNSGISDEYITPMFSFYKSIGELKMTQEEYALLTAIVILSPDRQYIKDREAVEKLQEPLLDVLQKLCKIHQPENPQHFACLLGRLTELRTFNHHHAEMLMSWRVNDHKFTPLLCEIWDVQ
The assay is described as follows: Human FXR (NRIH4) Assay, luciferase reporter. In kind it is cell-based. The settings on record: CHO reporter cells expressing human NR1H4, luciferase, 22 hours incubation. The source says:
Determination of a ligand mediated Gal4 promoter driven transactivation to quantify ligand binding mediated activation of FXR. FXR Reporter Assay kit purchased from Indigo Bioscience (Catalogue number: IB00601) to determine the potency and efficacy of compound developed by Enanta that can induce FXR activation. The principle application of this reporter assay system is to quantify functional activity of human FXR. The assay utilizes non-human mammalian cells, CHO (Chinese hamster ovary) cells engineered to express human NR1H4 protein (referred to as FXR). Reporter cells also incorporate the cDNA encoding beetle luciferase which catalyzes the substrates and yields photon emission. Luminescence intensity of the reaction is quantified using a plate-reading luminometer, Envision. Reporter Cells include the luciferase reporter gene functionally linked to an FXR responsive promoter. Thus, quantifying changes in luciferase expression in the treated reporter cells provides a sensitive surrogate measure of the changes in FXR activity. EC50 and efficacy (normalize to CDCA set as 100%) is determined by XLFit. The assay is according to the manufacturer's instructions. In brief, the assay was performed in white, 96 well plates using final volume of 100 ul containing cells with different doses of compounds. Retrieve Reporter Cells from −80° C. storage. Perform a rapid thaw of the frozen cells by transferring a 10 ml volume of 37° C. cell recovery medium into the tube of frozen cells. Recap the tube of Reporter Cells and immediately place it in a 37° C. water bath for 5-10 minutes. Retrieve the tube of Reporter Cell Suspension from the water bath. Sanitize the outside surface of the tube with a 70% alcohol swab, and then transfer it into the cell culture hood. Dispense 90 μl of cell suspension into each well of the 96-well Assay Plate. Transfer the plate into 37° C. incubator, allowing the cells adherent to the bottom of the well. Dilute compounds in Dilution Plate (DP), and administrate to cells at Assay Plate (AP). DMSO content of the samples was kept at 0.2%. Cells were incubated for additional 22 hours before luciferase activities were measured. Thirty minutes before intending to quantify FXR activity, remove Detection Substrate and Detection Buffer from the refrigerator and place them in a low-light area so that they may equilibrate to room temperature. Remove the plate's lid and discard all media contents by ejecting it into an appropriate waste container. Gently tap the inverted plate onto a clean absorbent paper towel to remove residual droplets. Cells will remain tightly adhered to well bottoms. Add 100 μl of luciferase detection reagent to each well of the assay plate. Allow the assay plate to rest at room temperature for at least 5 minutes following the addition of LDR. Set the instrument (Envision) to perform a single 5 second “plate shake” prior to reading the first assay well. Read time may be 0.5 second (500 mSec) per well. EC50 and Efficacy (normalize to CDCA set as 100%) is determined by XLFit.
The efficacy was normalized to CDCA set as 100%.
Background: Reporter assays use an easily measured gene product as a stand-in for the process of interest.
For the compound `CCOC(=O)c1cc(F)c2nc(SC3C4CCC3CC(NCc3c(-c5ccccc5OC(F)(F)F)noc3C3CC3)C4)sc2c1` [Example 14, ethyl 2-(((1R,3r,5S,8s)-3-(((5-cyclopropyl-3-(2-(trifluoromethoxy)phenyl)isoxazol-4-yl)methyl)amino)bicyclo[3.2.1]octan-8-yl)thio)-4-fluorobenzo[d]thiazole-6-carboxylate], the EC50 was > 500 nM.
Then `O=C(O)c1cc(F)c2nc(S[C@@H]3[C@@H]4CC[C@H]3C[C@@H](NCc3c(-c5ccccc5OC(F)(F)F)noc3C3CC3)C4)sc2c1` [Example 14-2, 2-(((1R,3r,5S,8s)-3-(((5-cyclopropyl-3-(2-(trifluoromethoxy)phenyl)isoxazol-4-yl)methyl)amino)bicyclo[3.2.1]octan-8-yl)thio)-4-fluorobenzo[d]thiazole-6-carboxylic acid], with 25 to 500 nM; and `COC(=O)c1ccc2nc(SC3C4CCC3CC(NCc3c(-c5ccccc5OC(F)(F)F)noc3C3CC3)C4)[nH]c2c1` (centres unmarked) [Example 14-3], with 25 to 500 nM; and `Fc1c(Br)cccc1CNC1C2CCC1CC(OCc1c(-c3ccccc3OC(F)(F)F)noc1C1CC1)C2` [Example 15, (1R,3r,5S,8s)-N-(3-bromo-2-fluorobenzyl)-3-((5-cyclopropyl-3-(2-(trifluoromethoxy)phenyl)isoxazol-4-yl)methoxy)bicyclo[3.2.1]octan-8-amine], with 25 to 500 nM.
Consider `Fc1ccc(CCNC2C3CCC2CC(OCc2c(-c4ccccc4OC(F)(F)F)noc2C2CC2)C3)cc1` (centres unmarked) [Example 15-2], for which the EC50 is > 500 nM.
Then `O=C(O)c1cc(F)c2nc(NC3C4CCC3CC(NCc3c(-c5ccccc5OC(F)(F)F)noc3C3CC3)C4)sc2c1` (centres unmarked) [Example 16], with 25 to 500 nM.
Then `O=C(O)c1ccc2c(c1)CN(C1C3CCC1CC(OCc1c(-c4c(Cl)cccc4Cl)noc1C1CC1)C3)C2` (centres unmarked) [Example 17], with 25 to 500 nM; and `CC(C)Oc1cc(C(=O)O)cc2sc(OC3C4CCC3CC(OCc3c(-c5ccccc5OC(F)(F)F)noc3C3CC3)C4)nc12` (centres unmarked) [Example 18], with 25 to 500 nM; and `FC(F)(F)Oc1ccccc1-c1noc(C2CC2)c1COC1CC2CCC(C1)C2Nc1cnc2cc(-c3nnn[nH]3)ccc2n1` (centres unmarked) [Example 25], with 25 to 500 nM.
For `O=C(O)c1cc(F)cc2ncc(NC3C4CCC3CC(OCc3c(-c5ccccc5OC(F)(F)F)noc3C3CC3)C4)nc12` (centres unmarked) [Example 26], the EC50 is > 500 nM.
Then `N#Cc1cc(C2CC2)cc2nc(NC3C4CCC3CC(OCc3c(-c5ccccc5OC(F)(F)F)noc3C3CC3)C4)cnc12` (centres unmarked) [Example 27], with 25 to 500 nM; and `FC(F)(F)Oc1ccccc1-c1noc(C2CC2)c1COC1CC2CCC(C1)C2Nc1cnc2c(-c3nnn[nH]3)cc(C3CC3)cc2n1` (centres unmarked) [Example 28], with < 25 nM; and `O=C(O)c1ccc2nc(NC3C4CCC3CC(OCc3c(-c5ccccc5OC(F)(F)F)noc3C3CC3)C4)cnc2c1` (centres unmarked) [Example 29], with < 25 nM.
Then `O=C(O)c1cc(C2CC2)cc2nc(NC3C4CCC3CC(OCc3c(-c5ccccc5OC(F)(F)F)noc3C3CC3)C4)cnc12` (centres unmarked) [Example 30], with < 25 nM; and `O=C(O)c1ccc2ccc(NC3C4CCC3CC(OCc3c(-c5ccccc5OC(F)(F)F)noc3C3CC3)C4)nc2c1` (centres unmarked) [Example 31], with 25 to 500 nM.
Then `Fc1cc(-c2nnn[nH]2)c2ncc(NC3C4CCC3CC(OCc3c(-c5ccccc5OC(F)(F)F)noc3C3CC3)C4)nc2c1` (centres unmarked) [Example 32], with < 25 nM.
For `CC1(S(=O)(=O)NC(=O)c2cccc3nc(NC4C5CCC4CC(OCc4c(-c6ccccc6OC(F)(F)F)noc4C4CC4)C5)cnc23)CC1` (centres unmarked) [Example 33], the EC50 is < 25 nM.
Then `O=C(NS(=O)(=O)C1CC1)c1cccc2nc(NC3C4CCC3CC(OCc3c(-c5ccccc5OC(F)(F)F)noc3C3CC3)C4)cnc12` (centres unmarked) [Example 34], with < 25 nM; and `N#Cc1ccc2nc(NC3C4CCC3CC(OCc3c(-c5ccccc5OC(F)(F)F)noc3C3CC3)C4)cnc2c1` (centres unmarked) [Example 35], with < 25 nM; and `O=C(O)c1cc(C2CC2)c2nc(NC3C4CCC3CC(OCc3c(-c5ccccc5OC(F)(F)F)noc3C3CC3)C4)sc2c1` (centres unmarked) [Example 36], with < 25 nM.
Then `O=C(O)c1cc(OC(F)(F)F)c2nc(NC3C4CCC3CC(OCc3c(-c5ccccc5OC(F)(F)F)noc3C3CC3)C4)sc2c1` (centres unmarked) [Example 37], with < 25 nM.
Then `N#Cc1cc(C2CC2)c2nc(NC3C4CCC3CC(OCc3c(-c5ccccc5OC(F)(F)F)noc3C3CC3)C4)sc2c1` (centres unmarked) [Example 38], with 25 to 500 nM; and `O=C(O)c1cc(F)cc2nc(NC3C4CCC3CC(OCc3c(-c5ccccc5OC(F)(F)F)noc3C3CC3)C4)cnc12` (centres unmarked) [Example 39], with < 25 nM; and `N#Cc1cc(F)cc2nc(NC3C4CCC3CC(OCc3c(-c5ccccc5OC(F)(F)F)noc3C3CC3)C4)cnc12` (centres unmarked) [Example 40], with < 25 nM.
As to `O=C(O)c1ccc2nc(NC3C4CCC3CC(OCc3c(-c5ccccc5OC(F)(F)F)noc3C3CC3)C4)cnc2c1` (centres unmarked) [Example 41], the EC50 was < 25 nM.
Then `O=C(O)c1cc(F)c2nc(S(=O)(=O)C3C4CCC3CC(OCc3c(-c5ccccc5OC(F)(F)F)noc3C3CC3)C4)sc2c1` (centres unmarked) [Example 45], with 25 to 500 nM; and `FC(F)(F)Oc1ccccc1-c1noc(C2CC2)c1COC1CC2CCC(C1)C2Nc1cnc2c(-c3nnn[nH]3)cccc2n1` (centres unmarked) [Example 46], with < 25 nM; and `N#Cc1cccc2ncc(NC3C4CCC3CC(OCc3c(-c5ccccc5OC(F)(F)F)noc3C3CC3)C4)nc12` (centres unmarked) [Example 47], with 25 to 500 nM.
For the compound `N#Cc1cccc2nc(NC3C4CCC3CC(OCc3c(-c5ccccc5OC(F)(F)F)noc3C3CC3)C4)cnc12` (centres unmarked) [Example 48], the EC50 is < 25 nM.

The record behind these values is US11555032B2, “Isoxazole derivatives as FXR agonists and methods of use thereof” (Enanta Pharmaceuticals, Inc., priority 2019, dated 2023).
